Data taken from ChEMBL document CHEMBL1122399, “Synthesis and antibacterial activities of new (alpha-hydrazinobenzyl)cephalosporins” (1983).
≈ marks a conversion by molar mass, not a printed value.

Columns and labels:
Assay type in all cases: functional
Bacteria [1] = test: In vitro antibacterial activity was determined by 2 fold serial agar dilution method in gram negative resistant bacteria
Bacteria [2] = test: In vitro antibacterial activity was determined by 2 fold serial agar dilution method with multilocular device in gram negative bacteria
[3] = In vitro antibacterial activity was determined by 2 fold serial agar dilution method with multilocular device in gram positive bacteria
[4] = In vitro antibacterial activity was determined by 2 fold serial agar dilution method in gram positive resistant bacteria

Row | Structure (SMILES) | MIC (Bacteria [1]) | MIC (Bacteria [2]) | MIC [3] | MIC [4]
1 | CC(=O)OCC1=C(C(=O)O)N2C(=O)[C@@H](NC(=O)[C@H](N)c3ccccc3)[C@H]2SC1 [CEPHALOGLYCIN] | 79.3 µg/mL (≈ 196 µM) | 8.5 µg/mL (≈ 21 µM) | 1.33 µg/mL (≈ 3.28 µM) | 19.8 µg/mL (≈ 48.8 µM)
2 | CC1=C(C(=O)O)N2C(=O)[C@@H](NC(=O)[C@H](N)c3ccccc3)[C@H]2SC1 [CEPHALEXIN ANHYDROUS] | 7.8 µg/mL (≈ 22.5 µM) | 5.7 µg/mL (≈ 16.4 µM) | 0.58 µg/mL (≈ 1.67 µM) | 24.9 µg/mL (≈ 71.7 µM)
3 | CC1=C(C(=O)O)N2C(=O)[C@@H](NC(=O)C(NN)c3ccccc3)C2SC1 (stereo partly specified) |  | > 100 µg/mL | 12.5 µg/mL (≈ 34.5 µM) | 62.9 µg/mL (≈ 174 µM)
4 | CC(=O)OCC1=C(C(=O)O)N2C(=O)[C@@H](NC(=O)C(c3ccccc3)N(C)N)C2SC1 (stereo partly specified) | > 100 µg/mL | 54.5 µg/mL (≈ 125 µM) | 1.33 µg/mL (≈ 3.06 µM) | 24.9 µg/mL (≈ 57.3 µM)
5 | CC1=C(C(=O)O)N2C(=O)[C@@H](NC(=O)C(c3ccccc3)N(C)N)C2SC1 (stereo partly specified) | > 100 µg/mL | 100 µg/mL (≈ 266 µM) | 6.74 µg/mL (≈ 17.9 µM) | 50 µg/mL (≈ 133 µM)
6 | CC(=O)OCC1=C(C(=O)O)N2C(=O)[C@@H](NC(=O)C(NN)c3ccccc3)C2SC1 (stereo partly specified) | > 100 µg/mL | 73.4 µg/mL (≈ 175 µM) | 1.68 µg/mL (≈ 4 µM) | 31.5 µg/mL (≈ 74.9 µM)
7 | N[C@@H](C(=O)N[C@@H]1C(=O)N2C(C(=O)O)=C(Cl)CS[C@H]12)c1ccccc1 [CEFACLOR ANHYDROUS] | 7.8 µg/mL (≈ 21.2 µM) | 1 µg/mL (≈ 2.72 µM) | 0.16 µg/mL (≈ 0.435 µM) | 15.7 µg/mL (≈ 42.7 µM)
8 | NNC(C(=O)N[C@@H]1C(=O)N2C(C(=O)O)=C(Cl)CSC12)c1ccccc1 (stereo partly specified) | 50 µg/mL (≈ 131 µM) | 21.4 µg/mL (≈ 55.9 µM) | 1.33 µg/mL (≈ 3.47 µM) | 31.4 µg/mL (≈ 82 µM)
